Measurements: article doi:10.1101/2025.06.13.659494v2, “A cell-based degrader assessment platform facilitates discovery of functional NUDT5 PROTACs” (biorxiv, 2026)

Biological target: T1, NUDT5 (purified) (Homo sapiens, UniProt Q9UKK9)
T1 construct: homodimer
Experiment: enzyme-coupled malachite green assay
Type: biochemical
Conditions: […] ADP-ribose, pH […] Mg acetate, […] °C

COc1cc(-c2nnc(Cn3c(N4CCNCC4)nc4c3c(=O)n(C)c(=O)n4C)o2)ccc1C [TH10184]
IC50: TH10184 showed comparable biochemical inhibition and thermal shift to TH5427
